Assay results as given in US9533985B2, “Sulfonamide derivative and medicinal use thereof” (EA Pharma Co., Ltd., priority 2012, dated 2017).

What was measured:
Assay type in all cases: cell-based
α4β1 integrin = α4β1 integrin (Homo sapiens (Human), UniProt P05556+P13612); experiment: VCAM-1/α4β1 integrin binding inhibitory activity evaluation test (Jurkat cell adhesion to VCAM-1/Fc); details: Jurkat cells binding to recombinant human VCAM-1/Fc
Method: The ability of test substances to inhibit the binding of a human T-cell line, Jurkat, which is known to express α4β1 integrin, to VCAM-1 was measured. To 96-well microtiter plates, recombinant human VCAM-1/Fc (R&D systems) solution (1 μg/mL) diluted with buffer A (carbonate buffer, pH 9.6) was added at 50 μL/well, followed by incubation at 4° C. overnight. After washing once with PBS, Block Ace (Snow Brand Milk Products Company, Limited) was added at 150 μL/well, followed by incubation at room temperature for 2 hours. After removal, washing was conducted once with PBS. 100 μL of each test substance diluted with a binding buffer (DMEM containing 40 mM HEPES, 0.2% BSA, and 4 mM MnCl2) to various concentrations and 100 μL of the Jurkat cells (2×10^6 cell/mL) were added to the plates coated with VCAM-1/Fc (5×10^5 cells/well), followed by incubation at 30° C. for 15 minutes to 60 minutes. After the cells were bound to each well, unbound cells were removed by washing with PBS. To the plates, buffer C (PBS containing 1.5% Triton X-100) was added at 50 μL/well to lyse the bound Jurkat cells. To 30 μL of the cell lysate, 30 μL of Substrate Buffer (Promega, CytoTox 96 Non-Radioactive Cytotoxicity Assay) was added, and the reaction was allowed to proceed at room temperature in a dark place for 30 minutes. To each well, 30 μL of Stop Solution (Promega, CytoTox 96 Non-Radioactive Cytotoxicity Assay) was added, and the absorbance at 490 nm was measured by using a plate reader. Here, by the obtained absorbance, the activity of the lactate dehydrogenase (LDH) dissolved into the supernatant of each well was detected. In other words, the absorbance was proportional to the number of the Jurkat cells bound to VCAM-1 and remaining on the plate. The test was duplicated. The binding ratios of the cells at various concentrations were determined, with the absorbance of a well containing no test substances taken as 100%. Then, the concentration IC50, at which 50% binding inhibition was achieved, was calculated. […] Note that, among the compounds synthesized in the corresponding Examples, the compounds in the free form (Compounds A-1 to A-39) were used as the test compounds. Hereinafter, the same shall apply.

α4β7 integrin [1] = target: T1, α4β7 integrin (Homo sapiens (Human), UniProt P13612+P26010); experiment: MAdCAM-1/α4β7 integrin binding inhibitory activity evaluation test in the presence of serum (1); details: RPMI-8866 cells binding to mouse MAdCAM-1/Fc, human serum at final concentration of 50%; read-out: α4β7 with serum added, IC50
Method: (§1) The ability of test substances to inhibit the binding of a human B cell line, RPMI-8866, which is known to express α4β7 integrin, to MAdCAM-1 was measured. To 96-well microtiter plates, recombinant mouse MAdCAM-1/Fc (R&D systems) solution (1 μg/mL) diluted with buffer A (carbonate buffer, pH 9.6) was added at 50 μL/well, followed by incubation at 4° C. overnight. After washing once with PBS, Block Ace (Snow Brand Milk Products Company, Limited) was added at 150 μL/well, followed by incubation at room temperature for 2 hours. After removal, washing was conducted once with PBS. 100 μL of each test substance diluted with a binding buffer (DMEM containing 40 mM HEPES, 0.2% BSA, and 4 mM MnCl2) to various concentrations and 100 μL of RPMI-8866 cells (2×10^6 cell/mL) were added to plates coated with MAdCAM-1/Fc (5×10^5 cells/well) with human serum being contained at a final concentration of 50%, followed by incubation at 30° C. for 15 minutes to 60 minutes. After the cells were bound to each well, unbound cells were removed by washing with PBS. To the plates, buffer C (PBS containing 1.5% Triton X-100) was added at 50 μL/well to lyse the bound RPMI-8866 cells. To 30 μL of the cell lysate, 30 μL of Substrate Buffer (Promega, CytoTox 96 Non-Radioactive Cytotoxicity Assay) was added, and the reaction was allowed to proceed at room temperature in a dark place for 30 minutes. To each well, 30 μL of Stop Solution (Promega, CytoTox 96 Non-Radioactive Cytotoxicity Assay) was added, and the absorbance at 490 nm was measured by using a plate reader. Here, by the obtained absorbance, the activity of the lactate dehydrogenase (LDH) dissolved into the supernatant of each well was detected. In other words, the absorbance was proportional to the number of the RPMI-8866 cells bound to MAdCAM-1 and remaining on the plate. The test was duplicated. The binding ratios of the cells at various concentrations were determined, with the absorbance of a well containing no test substance taken as 100%. Then, the concentration IC50, at which 50% binding inhibition was achieved, was calculated.

α4β7 integrin [2] = target: T1, α4β7 integrin; experiment: MAdCAM-1/α4β7 integrin binding inhibitory activity evaluation test (RPMI-8866 cell adhesion to MAdCAM-1/Fc); details: for Selectivity: IC50 in VCAM-1/α4β1 test divided by IC50 in MAdCAM-1/α4β7 test; for IC50: RPMI-8866 cells binding to recombinant mouse MAdCAM-1/Fc, no serum
Method: as §1, with “systems) solution (0.75 μg/mL) diluted” for “systems) solution (1 μg/mL) diluted”, “A (carbonate buffer solution, pH 9.6)” for “A (carbonate buffer, pH 9.6)”, “diluted with binding buffer” for “diluted with a binding buffer”, “added to the plates coated” for “added to plates coated”, “MAdCAM-1/Fc (5×10^5 cells/well), followed by” for “MAdCAM-1/Fc (5×10^5 cells/well) with human serum being contained at a final concentration of 50%, followed by”, “was calculated. […] Note that the selectivity in the table was determined by dividing the IC50 value in VCAM-1/α4β1 Integrin Binding Inhibitory Activity Evaluation Test by the IC50 value in the MAdCAM-1/α4β7 integrin binding inhibitory activity evaluation test.” for “was calculated.”

Sequence of α4β1 integrin (P13612 34-1032): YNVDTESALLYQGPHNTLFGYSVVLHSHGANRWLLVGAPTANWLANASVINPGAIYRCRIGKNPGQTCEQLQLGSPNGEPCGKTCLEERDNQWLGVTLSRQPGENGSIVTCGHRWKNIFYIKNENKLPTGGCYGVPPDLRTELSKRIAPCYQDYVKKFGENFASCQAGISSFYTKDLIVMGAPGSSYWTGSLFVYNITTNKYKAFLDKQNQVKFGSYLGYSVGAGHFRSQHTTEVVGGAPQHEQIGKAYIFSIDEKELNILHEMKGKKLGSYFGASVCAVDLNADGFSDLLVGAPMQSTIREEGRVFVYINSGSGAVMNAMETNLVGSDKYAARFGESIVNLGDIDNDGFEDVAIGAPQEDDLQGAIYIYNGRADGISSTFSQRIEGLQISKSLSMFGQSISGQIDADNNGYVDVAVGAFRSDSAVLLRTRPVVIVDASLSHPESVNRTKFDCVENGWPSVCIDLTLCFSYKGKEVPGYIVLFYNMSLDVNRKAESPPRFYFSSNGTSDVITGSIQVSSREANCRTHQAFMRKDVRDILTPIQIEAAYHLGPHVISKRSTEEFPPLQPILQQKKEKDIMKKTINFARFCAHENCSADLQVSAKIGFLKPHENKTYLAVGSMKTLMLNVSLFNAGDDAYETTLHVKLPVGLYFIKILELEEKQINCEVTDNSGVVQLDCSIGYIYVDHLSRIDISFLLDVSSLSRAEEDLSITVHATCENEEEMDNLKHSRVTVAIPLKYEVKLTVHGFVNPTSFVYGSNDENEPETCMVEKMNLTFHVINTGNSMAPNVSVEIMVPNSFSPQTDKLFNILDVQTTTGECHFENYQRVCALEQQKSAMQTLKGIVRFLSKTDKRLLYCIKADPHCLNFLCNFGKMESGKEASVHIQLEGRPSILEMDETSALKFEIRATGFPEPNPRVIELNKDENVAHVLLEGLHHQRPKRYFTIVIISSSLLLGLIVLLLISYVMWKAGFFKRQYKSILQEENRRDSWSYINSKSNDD
Sequence of α4β1 integrin (P05556 21-798): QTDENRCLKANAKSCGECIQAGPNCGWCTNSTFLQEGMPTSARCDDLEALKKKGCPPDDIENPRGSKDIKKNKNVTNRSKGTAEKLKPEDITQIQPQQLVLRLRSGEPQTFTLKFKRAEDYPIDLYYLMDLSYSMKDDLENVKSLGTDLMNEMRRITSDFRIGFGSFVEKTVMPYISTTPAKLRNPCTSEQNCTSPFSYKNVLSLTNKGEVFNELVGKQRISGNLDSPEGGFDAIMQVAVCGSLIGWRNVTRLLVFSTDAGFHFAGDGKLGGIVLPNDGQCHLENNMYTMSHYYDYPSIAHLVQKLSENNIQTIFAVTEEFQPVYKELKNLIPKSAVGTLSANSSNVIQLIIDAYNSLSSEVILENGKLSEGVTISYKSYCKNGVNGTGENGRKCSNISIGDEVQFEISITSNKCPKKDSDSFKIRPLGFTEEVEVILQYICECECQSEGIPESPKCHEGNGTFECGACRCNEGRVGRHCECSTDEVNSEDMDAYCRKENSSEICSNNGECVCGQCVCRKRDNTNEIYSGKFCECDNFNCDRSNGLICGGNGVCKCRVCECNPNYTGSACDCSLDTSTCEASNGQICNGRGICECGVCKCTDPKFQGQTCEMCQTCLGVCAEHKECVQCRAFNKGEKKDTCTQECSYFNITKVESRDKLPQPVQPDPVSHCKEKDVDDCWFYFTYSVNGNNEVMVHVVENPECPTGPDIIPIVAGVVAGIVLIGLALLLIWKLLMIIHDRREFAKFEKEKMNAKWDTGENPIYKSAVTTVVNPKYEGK
T1 sequence (P13612 34-1032): as the sequence (P13612 34-1032) above
T1 sequence (P26010 20-798): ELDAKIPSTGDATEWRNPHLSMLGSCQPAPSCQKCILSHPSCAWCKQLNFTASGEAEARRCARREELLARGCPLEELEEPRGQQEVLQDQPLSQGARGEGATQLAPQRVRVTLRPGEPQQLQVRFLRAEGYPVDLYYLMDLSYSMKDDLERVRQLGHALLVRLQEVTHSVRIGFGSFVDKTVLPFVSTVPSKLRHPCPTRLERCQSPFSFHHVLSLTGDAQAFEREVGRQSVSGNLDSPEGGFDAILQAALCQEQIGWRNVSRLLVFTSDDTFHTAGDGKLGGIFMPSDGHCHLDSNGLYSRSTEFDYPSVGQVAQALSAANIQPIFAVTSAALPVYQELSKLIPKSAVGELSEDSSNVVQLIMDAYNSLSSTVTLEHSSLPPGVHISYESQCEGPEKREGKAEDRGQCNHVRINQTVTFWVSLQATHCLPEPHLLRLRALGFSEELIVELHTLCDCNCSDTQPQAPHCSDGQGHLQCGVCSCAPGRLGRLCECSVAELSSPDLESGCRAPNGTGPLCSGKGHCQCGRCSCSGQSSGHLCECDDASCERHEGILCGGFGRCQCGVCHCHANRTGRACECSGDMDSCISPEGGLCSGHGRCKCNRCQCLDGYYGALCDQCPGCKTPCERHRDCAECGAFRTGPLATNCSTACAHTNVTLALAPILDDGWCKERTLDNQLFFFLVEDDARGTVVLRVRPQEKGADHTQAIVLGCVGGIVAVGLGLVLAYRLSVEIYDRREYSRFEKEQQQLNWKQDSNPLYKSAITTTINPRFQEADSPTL

| Structure (SMILES) | IC50 (α4β1 integrin) | IC50 (α4β7 integrin [1]) | Selectivity (α4β7 integrin [2]) | IC50 (α4β7 integrin [2]) |
| --- | --- | --- | --- | --- |
| Cn1ccc(=O)n(-c2ccc(C[C@H](NC(=O)c3c(F)cc(NS(=O)(=O)c4ccc(-n5ccnn5)cc4)cc3F)C(=O)O)cc2)c1=O [Example 58, N-[2,6-Difluoro-4-({[4-(1H-1,2,3-triazol-1-yl)phenyl]sulfonyl}amino)benzoyl]-4-(3-methyl-2,6-dioxo-3,6-dihydropyrimidin-1(2H)-yl)-L-phenylalanine] | 410 nM | 4.8 nM | 410 | 1 nM |
| Cn1c(=O)n(-c2ccc(C[C@H](NC(=O)c3c(F)cc(NS(=O)(=O)c4ccc(-c5nccs5)cn4)cc3F)C(=O)O)cc2)c(=O)c2ccncc21 [Example 59, N-[2,6-Difluoro-4-({[5-(1,3-thiazol-2-yl)pyridin-2-yl]sulfonyl}amino)benzoyl]-4-(1-methyl-2,4-dioxo-1,4-dihydropyrido[3,4-d]pyrimidin-3(2H)-yl)-L-phenylalanine] | 22 nM | 4.1 nM | 130 | 0.17 nM |
| Cn1c(=O)n(-c2ccc(C[C@H](NC(=O)c3c(F)cc(NS(=O)(=O)c4ccc(C5=CCNCC5)cc4)cc3F)C(=O)O)cc2)c(=O)c2ccncc21 [Example 69, N-[2,6-Difluoro-4-({[4-(1,2,3,6-tetrahydropyridin-4-yl)phenyl]sulfonyl}amino)benzoyl]-4-(1-methyl-2,4-dioxo-1,4-dihydropyrido[3,4-d]pyrimidin-3(2H)-yl)-L-phenylalanine] | 31 nM | 1.3 nM | 150 | 0.21 nM |
| Cc1cnccc1-c1ccc(S(=O)(=O)Nc2cc(F)c(C(=O)N[C@@H](Cc3ccc(-n4c(=O)c5ccncc5n(C)c4=O)cc3)C(=O)O)c(F)c2)cc1 [Example 65, N-[2,6-Difluoro-4-({[4-(3-methylpyridin-4-yl)phenyl]sulfonyl}amino)benzoyl]-4-(1-methyl-2,4-dioxo-1,4-dihydropyrido[3,4-d]pyrimidin-3(2H)-yl)-L-phenylalanine] | 420 nM | 9.7 nM | 750 | 0.56 nM |
| Cn1ccc(=O)n(-c2ccc(C[C@H](NC(=O)c3c(F)cc(NS(=O)(=O)c4ccc(-c5cncnc5)cc4)cc3F)C(=O)O)cc2)c1=O [Example 60, N-(2,6-Difluoro-4-{[(4-pyrimidin-5-yl-phenyl)sulfonyl]amino}benzoyl)-4-(3-methyl-2,6-dioxo-3,6-dihydropyrimidin-1 (2H)-yl)-L-phenylalanine] | 1200 nM | 5.5 nM | 1100 | 1.1 nM |
| Cn1c(=O)n(-c2ccc(C[C@H](NC(=O)c3c(F)cc(NS(=O)(=O)c4ccc(-c5cncnc5)cn4)cc3F)C(=O)O)cc2)c(=O)c2ccncc21 [Example 54, N-(2,6-Difluoro-4-{[(5-pyrimidin-5-yl-pyridin-2-yl)sulfonyl]amino}benzoyl)-4-(1-methyl-2,4-dioxo-1,4-dihydropyrido[3,4-d]pyrimidin-3(2H)-yl)-L-phenylalanine] | 18 nM | 1.6 nM | 230 | 0.077 nM |
| Cc1cc(-c2ccc(S(=O)(=O)Nc3cc(F)c(C(=O)N[C@@H](Cc4ccc(-n5c(=O)c6c(ncn6C)n(C)c5=O)cc4)C(=O)O)c(F)c3)cc2)ccn1 [Example 74, N-[2,6-Difluoro-4-({[4-(2-methylpyridin-4-yl)phenyl]sulfonyl}amino)benzoyl]-4-(3,7-dimethyl-2,6-dioxo-2,3,6,7-tetrahydro-1H-purin-1-yl)-L-phenylalanine] | 520 nM | 11 nM | 1300 | 0.39 nM |
| Cn1c(=O)n(-c2ccc(C[C@H](NC(=O)c3c(F)cc(NS(=O)(=O)c4ccc(-n5cncn5)cn4)cc3F)C(=O)O)cc2)c(=O)c2ccncc21 [Example 57, N-[2,6-Difluoro-4-({[5-(1H-1,2,4-triazol-1-yl)pyridin-2-yl]sulfonyl}amino)benzoyl]-4-(1-methyl-2,4-dioxo-1,4-dihydropyrido[3,4-d]pyrimidin-3(2H)-yl)-L-phenylalanine] | 13 nM | 1.5 nM | 220 | 0.06 nM |
| Cc1cc(-c2ccc(S(=O)(=O)Nc3cc(F)c(C(=O)N[C@@H](Cc4ccc(-n5c(=O)c6ccncc6n(C)c5=O)cc4)C(=O)O)c(F)c3)cc2)ccn1 [Example 49, N-[2,6-Difluoro-4-({[4-(2-methylpyridin-4-yl)phenyl]sulfonyl}amino)benzoyl]-4-(1-methyl-2,4-dioxo-1,4-dihydropyrido[3,4-d]pyrimidin-3(2H)-yl)-L-phenylalanine] | 330 nM | 25 nM | 770 | 0.43 nM |
| COc1ccc2c(c1)c(=O)n(-c1ccc(C[C@H](NC(=O)c3c(F)cc(NS(=O)(=O)c4ccc(C(=O)NC5CC5)cc4)cc3F)C(=O)O)cc1)c(=O)n2C [Example 78, N-{4-[({4-[(Cyclopropylamino)carbonyl]phenyl}sulfonyl)amino]-2,6-difluorobenzoyl}-4-(6-methoxy-1-methyl-2,4-dioxo-1,4-dihydroquinazolin-3(2H)-yl)-L-phenylalanine] | 370 nM | 19 nM | 470 | 0.79 nM |
